Experimental data taken from US20260022142A1, “MACROCYCLIC IMMUNOMODULATORS” (Bristol-Myers Squibb Company, priority 2022, published 2026).
Bridge positions count the residues as written; N and C are the ends. Square brackets hold non-standard residues; d marks the D form. Peptide text beside a SMILES is read from it. * marks the point of attachment. Phe(4-COOH) = N[C@@H](Cc1ccc(C(=O)O)cc1)C(=O)O; Bip = N[C@@H](Cc1ccc(-c2ccccc2)cc1)C(=O)O; Phe(3-OMe) = COc1cccc(C[C@H](N)C(=O)O)c1; Phe(4-CN) = N#Cc1ccc(C[C@H](N)C(=O)O)cc1; Phe(3-Me) = Cc1cccc(C[C@H](N)C(=O)O)c1; Val(3-OH) = CC(C)(O)[C@H](N)C(=O)O; Cha = N[C@@H](CC1CCCCC1)C(=O)O; Cit = NC(=O)NCCC[C@H](N)C(=O)O; Carboxymethyl = O=C(O)C*; Orn = NCCC[C@H](N)C(=O)O; Aun = NCCCCCCCCCCC(=O)O; Dab = NCC[C@H](N)C(=O)O; Dap = NC[C@H](N)C(=O)O; AEEA = NCCOCCOCC(=O)O

Biological target: T1, PD-1/PD-L1 interaction (PE-labeled human PD-L1-Ig binding to Jurkat cell line over-expressing human PD-1) (Homo sapiens, UniProt Q15116)
T1 construct: expressed in transfected cells; host or cells: Jurkat
T1 sequence (Q15116 25-288): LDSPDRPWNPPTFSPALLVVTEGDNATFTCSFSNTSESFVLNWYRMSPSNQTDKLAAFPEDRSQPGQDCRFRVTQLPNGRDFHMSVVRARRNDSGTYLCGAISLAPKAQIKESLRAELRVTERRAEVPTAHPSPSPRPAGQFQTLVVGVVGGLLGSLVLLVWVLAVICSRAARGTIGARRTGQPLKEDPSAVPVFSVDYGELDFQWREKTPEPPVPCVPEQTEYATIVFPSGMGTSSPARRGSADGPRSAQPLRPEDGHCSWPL
Assay: Jurkat-PD-1 Cell Binding High-Content Screening Assay (CBA)
Format: cell-based
Details: Jurkat cell line over-expressing human PD-1; PE-labeled PD-L1-Ig 20 nM final; read-out: Jurkat hPD1-PDL1 IC50
Procedure: Example 2: Jurkat-PD-1 Cell Binding High-Content Screening Assay (CBA)
Phycoerythrin (PE) was covalently linked to the Ig epitope tag of human PD-L1-Ig and fluorescently-labeled PD-L1-Ig was used for binding studies with a Jurkat cell line over-expressing human PD-1 (Jurkat-PD-1). Briefly, 8×10^3 Jurkat-hPD-1 cells were seeded into 384 well plates in 20 μl of DMEM supplemented with 10% fetal calf serum. 100 nl of compound was added to cells followed by incubation at 37° C. for 2 h. Then, 5 μl of PE-labeled PD-L1-Ig (20 nM final), diluted in DMEM supplemented with 10% fetal calf serum. After 1 hour incubation, cells were fixed with 4% paraformaldehyde in dPBS containing 10 μg/ml Hoechst 33342 and then washed 3× in 100 μl dPBS. Data was collected and processed using a Cell Insight NXT High Content Imager and associated software.

IC50 [nM] | SMILES
7.2 | COc1cccc(C[C@@H]2NC(=O)[C@H](CC(=O)O)NC(=O)[C@H](Cc3ccc(OCC(=O)O)cc3)NC(=O)[C@H](CN)NC(=O)CSC[C@@H](C(=O)N[C@@H](CCN)C(=O)NCCOCCOCC(=O)NCCCCCCCCCCC(=O)O)NC(=O)[C@H](CCCN)NC(=O)[C@H](C(C)C)NC(=O)[C@H](CC3CCCCC3)NC(=O)[C@H](CCN)NC(=O)[C@@H](CC(C)C)NC(=O)[C@H](CCCN)NC(=O)[C@H](Cc3ccc(O)cc3)NC(=O)[C@H](Cc3ccc(-c4ccccc4)cc3)NC(=O)[C@H](Cc3ccc(OCC(=O)O)cc3)NC2=O)c1 [Compound 1001] ({CH2CO}-[Dap]Y(Carboxymethyl)D[Phe(3-OMe)]Y(Carboxymethyl)[Bip]Y[Orn][dL][Dab][Cha]V[Orn]C[Dab][AEEA][Aun]-OH; thioether N-14)
14.8 | Cc1cccc(C[C@@H]2NC(=O)[C@H](CC(=O)O)NC(=O)[C@H](Cc3ccc(C(=O)O)cc3)NC(=O)[C@H](Cc3ccc(C#N)cc3)NC(=O)CSC[C@@H](C(=O)N[C@@H](CCN)C(=O)NCCCCCCCCCCC(=O)O)NC(=O)[C@H](CO)NC(=O)[C@H](C(C)(C)O)NC(=O)[C@H](CC3CCCCC3)NC(=O)[C@H](CCN)NC(=O)[C@@H](CC(C)C)NC(=O)[C@H](CCCN)NC(=O)[C@H](Cc3ccc(OCC(=O)O)cc3)NC(=O)[C@H](Cc3ccc(-c4ccccc4)cc3)NC(=O)[C@H](Cc3ccc(OCC(=O)O)cc3)NC2=O)c1 [Compound 1003] ({CH2CO}-[Phe(4-CN)][Phe(4-COOH)]D[Phe(3-Me)]Y(Carboxymethyl)[Bip]Y(Carboxymethyl)[Orn][dL][Dab][Cha][Val(3-OH)]SC[Dab][Aun]-OH; thioether N-14)

Further lines, the molecule ahead of its results:

SMILES | IC50 [nM]
Cc1cccc(C[C@@H]2NC(=O)[C@H](CC(=O)O)NC(=O)[C@H](Cc3ccc(OCC(=O)O)cc3)NC(=O)[C@H](CN)NC(=O)CSC[C@@H](C(=O)N[C@@H](CCN)C(=O)NCCCCCCCCCCCCC(=O)O)NC(=O)[C@H](C(C)O)NC(=O)[C@H](C(C)C)NC(=O)[C@H](CC3CCCCC3)NC(=O)[C@H](CCN)NC(=O)[C@@H](CC(C)C)NC(=O)[C@H](CCCN)NC(=O)[C@H](CCCNC(N)=O)NC(=O)[C@H](Cc3ccc(-c4ccccc4)cc3)NC(=O)[C@H](C(C)C)NC2=O)c1 (mixture of isomers) [Compound 3126] | 68.6
Cc1cccc(C[C@@H]2NC(=O)[C@H](CC(=O)O)NC(=O)[C@H](Cc3ccc(OCC(=O)O)cc3)NC(=O)[C@H](CN)NC(=O)CSC[C@@H](C(=O)N[C@@H](C)C(=O)N[C@@H](CCC(=O)O)C(=O)NCC(=O)NCCCCCCCCCCC(=O)O)NC(=O)[C@H]([C@@H](C)O)NC(=O)[C@H](C(C)C)NC(=O)[C@H](CC3CCCCC3)NC(=O)[C@H](CCN)NC(=O)[C@@H](CC(C)C)NC(=O)[C@H](CCCN)NC(=O)[C@H](CCCNC(N)=O)NC(=O)[C@H](Cc3ccc(-c4ccccc4)cc3)NC(=O)[C@H](C(C)C)NC2=O)c1 [Compound 1000] ({CH2CO}-[Dap]Y(Carboxymethyl)D[Phe(3-Me)]V[Bip][Cit][Orn][dL][Dab][Cha]VTCAEG[Aun]-OH; thioether N-14) | 5.5
Cc1cccc(C[C@@H]2NC(=O)[C@H](CC(=O)O)NC(=O)[C@H](Cc3ccc(OCC(=O)O)cc3)NC(=O)[C@H](CN)NC(=O)CSC[C@@H](C(=O)N[C@@H](C)C(=O)N[C@@H](CC(=O)O)C(=O)NCC(=O)NCCCCCCCCCCC(=O)O)NC(=O)[C@H]([C@@H](C)O)NC(=O)[C@H](C(C)C)NC(=O)[C@H](CC3CCCCC3)NC(=O)[C@H](CCN)NC(=O)[C@@H](CC(C)C)NC(=O)[C@H](CCCN)NC(=O)[C@H](CCCNC(N)=O)NC(=O)[C@H](Cc3ccc(-c4ccccc4)cc3)NC(=O)[C@H](C(C)C)NC2=O)c1 [Compound 1002] ({CH2CO}-[Dap]Y(Carboxymethyl)D[Phe(3-Me)]V[Bip][Cit][Orn][dL][Dab][Cha]VTCADG[Aun]-OH; thioether N-14) | 6
